Assay results taken from US20260102377A1, “COMPOSITIONS AND METHODS FOR TREATING MYASTHENIA GRAVIS” (priority 2022, published 2026).
“Also recorded” adds a separate entry of the source.

Experiments:
[1] = test system: muscle fibres from EAMG rats; assay: Endplate potentials (EPP) in isolated nerve-muscle preparations; format: cell-based, rat; conditions: 20 μM NMD670
From the text: The effect of CIC-1 inhibition on neuromuscular transmission was investigated at the cellular level by recording endplate potentials (EPPs) with intracellular electrodes in isolated nerve-muscle preparations from healthy and EAMG rats (score 0-2). Muscle preparations used in the experiments were diaphragm or levator longus auris (LAL) providing the advantage to dissect out 1-3 cm of intact motor nerve. After dissection, preparations were immediately mounted in a chamber perfused with NKR at a temperature of 30-31° C., pH 7.4-7.5. […]

EAMG muscle fibres = assay: Intracellular action potential measurement during nerve stimulation; format: cell-based, rat; conditions: 20 μM NMD670; 30 Hz nerve stimulation; EAMG muscle fibres (n=110)
From the text: To allow for measurements of electrophysiological properties at the cellular level and for measurements of force, it was necessary to isolate nerve-muscle preparations from the rats. To this end, animals were sacrificed, and muscles were dissected out with 1 to 3 cm of intact nerve. The nerve-muscle preparations were then transferred to the organ baths used for the particular experiments (see below) and perfused with Normal Krebs-Ringer (NKR) solution, consisting of (in mM); 122 NaCl, 25 NaHCO3, 2.8 KCl, 1.2 KH2PO4, 1.2 MgSO4 1.27 CaCl2 and 5 D-glucose. This NKR solution was continuously gassed with a mixture of 95% oxygen and 5% CO2, to maintain a pH of approx. 7.4. In some experiments methyl-sulphate was used to replace Cl^− in the solution. All chemicals used were of analytical grade.

EAMG rats = assay: Force and EMG in sedated EAMG animals (triceps surae, sciatic nerve stimulation); format: in vivo, rat
Tablet dissolution = format: physicochemical; conditions: after a maximum of 60 minutes; USP2 paddles 75 RPM, 900 ml dissolution media pH 6.8, 37° C.
Description: Tablet dissolution was determined as follows.
Dissolution Media pH 6.8 was prepared by dissolving 27.3 g Na2HPO4·2H2O and 4.9 g Citric Acid in 1 L Milli-Q water. The pH was measured and adjusted if necessary to pH 6.8.
900 mL of dissolution media pH 6.8 was accurately transferred into each dissolution vessel. The apparatus was assembled, and the dissolution media was heated to 37° C.±0.5° C. The T=0 point was extracted from each vessel prior to dropping the tablets into the dissolution vessels. One tablet was gently dropped into each dissolution vessel, and rotation of the paddle was immediately started. Samples were taken that the sample extraction timepoints and analysed using the HPLC method.

[2] = test system: patients with myasthenia gravis; assay: Phase IIA clinical trial (Part C): Quantitative Myasthenia Gravis test; format: in vivo, human
Description: (§1) For each subject, the study consisted of three study periods during which subjects received either a single dose of NMD670 400 mg, NMD670 1200 mg, or placebo with a 7-day washout period between visits. On these study visits, subjects were asked to refrain from their regular dose of pyridostigmine (if applicable) from 14 h before dosing until after the last pharmacodynamic measurement on Day 1 (see Table 13: Visit and Assessment Schedule). The cross-over design allowed intra-individual comparison of drug effects versus placebo (see FIG. 16). A balanced design was applied to control for first-order carry-over effects.
(§2) Part C was a double-blinded, placebo-controlled, three-way cross-over comparison of two single oral doses of NMD670 in men and women with stable symptomatic myasthenia gravis. 12 patients were enrolled. For each subject, the study consisted of three study periods during which subjects received either a single dose of NMD670 or placebo. On these study visits, subjects were asked to refrain from their regular dose of pyridostigmine (if applicable) for 14 hours before dosing. Single doses were administered in randomized order (400 mg free acid, 1200 mg free acid, or placebo p.o.), with a 7-day washout period between visits (FIG. 16). NMD670/placebo was administered with 240 ml of still water.
The Quantitative Myasthenia Gravis (QMG) total score (Barohn et al., Ann N YAcad Sci 1998, 841:769-72) is a validated clinical measure of sentinel muscle groups developed by the Myasthenia Gravis Foundation of America and the current clinical gold standard recommended for all prospective studies in MG. The QMG test is a physician-rated test using 13 assessments (see table 1), including facial strength, swallowing, respiratory, grip strength, and duration of time that limbs can be maintained in outstretched positions. Each of the 13 items is scored from 0 (none) to 3 (severe).
The total score can range from 0 to 39.

[3] = test system: patients with myasthenia gravis; assay: Phase IIA clinical trial (Part C): repetitive nerve stimulation (CMAP decrement, nasalis muscle); format: in vivo, human; conditions: for RNS decrement responders / Patients with RNS decrement at baseline who recovered (less than 5% decrement): 3- and 5-hour measurements; for RNS decrement responders: placebo 0%
Description: as §1, §2
RNS uses trains of 10 supramaximal electrical stimuli at 3 and 5 Hz using a Medelec Synergy 11.0. The optimal stimulation site on the skin is identified using inframaximal stimuli, after which the limit of supramaximal intensity is established. The working intensity is about 130% of that threshold. RNS is performed on the facial nerve/nasalis muscle combination. Techniques have been described previously (Niks et al., Muscle & Nerve, 2003, 28(2):236-238; Ruys-Van Oeyen et al., Muscle & Nerve, 2002, 26(2):279-282; Schumm et al., Muscle & Nerve, 1984, 7(2):147-151).
Compound Muscle Action Potentials (CMAPs) were recorded from the nasalis muscle in response to nerve stimulation. Decrement refers to decline in CMAP amplitude during repeated stimulation and indicates neuromuscular transmission failure.

[4] = 400 mg group, 3-hour measurements
[5] = 1200 mg group, 3- and 5-hour measurements
[6] = single doses, 12 patients with MG

C[C@H](Oc1ccc(Br)cc1-c1ccon1)C(=O)O [NMD670, (2S)-2-[4-bromo-2-(1,2-oxazol-3-yl)phenoxy]propanoic acid]
Endplate potential (EPP) in muscle fibres from EAMG rats vs healthy rats [1]: could be restored | Increase of endplate potential (EPP) amplitude ([1]; EAMG rats, throughout a 12 Hz train of 30 stimulations, 82 fibres vs 68 fibres without inhibitor): more than 35% | Success of repeated action potential excitations (EAMG muscle fibres): improved markedly; also recorded: AP excitation failures were less common | Nerve-stimulated force and EMG amplitude in triceps surae (EAMG rats; EAMG rat score 2, 40 mg per kg, 20 minutes after administration, 80 Hz for 1 second): rapid restoration of force and EMG amplitude | Restoration of muscle force / EMG (EAMG rats; EAMG rats, single per oral doses from 2 to 120 mg/kg): rapid and dose-dependent restoration of muscle force; also recorded: rapid and dose-dependent restoration of both EMG and force | NMD670 released from the tablets (Tablet dissolution): Not less than 80% | Patients achieving a 2-point or larger improvement in QMG total score [2, 4]: 6 of 12 | QMG responder rate (2-point or larger improvement from baseline compared to placebo) [2, 4]: 50% | Patients achieving a 2-point or larger improvement in QMG total score ([2]; 400 mg group, 5-hour): 5 of 12 | QMG responder rate (2-point or larger improvement from baseline compared to placebo) ([2]; 400 mg group, 5-hour): 42% | QMG total score, LSM change over placebo (given as positive improvement) ([2]; 400 mg treatment group, 3-hour timepoint, p=0.12): 1.3 points | QMG total score, Arithmetic Mean change (given as positive improvement) ([2]; 400 mg treatment group, 5-hour timepoint): 2.1 points | QMG total score, LSM change over placebo (given as positive improvement) ([2]; 400 mg treatment group, 5-hour timepoint, p=0.02): 1.7 points | QMG total score, CFB over placebo, Arithmetic mean ([2]; 400 mg versus placebo, 3-hour): −1.6 points | QMG total score, CFB over placebo, LSM ([2]; 400 mg versus placebo, 3-hour, p = 0.12): −1.2 points | QMG total score, CFB over placebo, Arithmetic mean ([2]; 400 mg versus placebo, 5-hour): −2.1 points | QMG total score, CFB over placebo, LSM ([2]; 400 mg versus placebo, 5-hour, p = 0.02): −1.7 points | QMG total score, CFB over placebo, LSM ([2]; 400 mg versus placebo, Overall, p = 0.03, single oral dose, 12 MG patients): −1.5 points | Patients achieving a 2-point or larger improvement in QMG total score [2, 5]: 5 of 12 | QMG responder rate (2-point or larger improvement from baseline compared to placebo) [2, 5]: 42% | QMG total score, Least Mean Square change improvement from baseline over placebo ([2]; 1200 mg group, 3-hour timepoint): 0.9 points | QMG total score, Least Mean Square change improvement from baseline over placebo ([2]; 1200 mg group, 5-hour timepoint): 1.1 points | QMG total score, Least Mean Square change improvement from baseline over placebo ([2]; 1200 mg group, overall, non-statistically significant): 1.0 points | QMG total score, CFB over placebo, Arithmetic mean ([2]; 1200 mg versus placebo, 3-hour): −1.2 points | QMG total score, CFB over placebo, LSM ([2]; 1200 mg versus placebo, 3-hour, p = 0.25): −0.9 points | QMG total score, CFB over placebo, Arithmetic mean ([2]; 1200 mg versus placebo, 5-hour): −1.5 points | QMG total score, CFB over placebo, LSM ([2]; 1200 mg versus placebo, 5-hour, p = 0.14): −1.1 points | QMG total score, CFB over placebo, LSM ([2]; 1200 mg versus placebo, Overall, p = 0.14): −1 points | QMG individual items: double vision, ptosis and dysarthria compared to placebo ([2]; both 400 mg and 1200 mg doses, non-statistically significant): improved | Patients meeting responder criterion (QMG) [2, 6]: up to 50% | QMG total Score after single doses [2, 6]: clinically significant improvements | QMG total score, LSM change from baseline improvement over placebo (given as positive improvement) ([2]; worded 'the NMD670 treatment arms', p=0.03 (Table 17: 400 mg overall)): 1.5 points | Treatment effect on CMAP decrement (continuous measurements) ([3]; 400 mg and 1200 mg single doses, nasalis muscle): No significant treatment effects and no trends of dose-dependent effects | RNS decrement responders ([3]; 400 mg arm): 83% | Patients with RNS decrement at baseline who recovered (less than 5% decrement) ([3]; 400 mg arm, of 6 subjects with decrement at baseline): 5 subjects | RNS decrement responders ([3]; 1200 mg arm): 33% | Patients with RNS decrement at baseline who recovered (less than 5% decrement) ([3]; 1200 mg arm, of 3 subjects with decrement at baseline): 1 subjects
